Measured values published in PMC13672995, “NCR13 peptide protects soybean against Cercospora sojina using multi-faceted modes of action and additive interaction with chemical fungicides” (Journal of Experimental Botany, 2025).
Where no end group is shown, it is not given here.

Legend:
[1] = test system: azoxystrobin-resistant C. sojina Cs350 conidia; test: Cell death detection assay (propidium iodide, confocal microscopy); format: cell-based, Cercospora sojina; conditions: NCR13_PFV1 1.5 μM alone; within 1 h; PI staining; n=3
Experimental: The fungicidal activity of azoxystrobin and peptide NCR13_PFV1 in azoxystrobin-resistant C. sojina Cs350 was analyzed by visualizing the influx of a cell death indicator dye propidium iodide (PI) using time-lapse confocal microscopy. The C. sojina conidia were treated with various concentrations of azoxystrobin, NCR13_PFV1, azoxystrobin plus NCR13_PFV1, or water and 0.5 μg ml^–1 PI, and were observed under confocal microscopy at an excitation and emission wavelength of 500 nm and 545–690 nm, respectively. Z-stacks at each time point were acquired using a ×63 water immersion objective lens (HC PL Apochromat CS2). For each sample, the number of live and dead cells after 1 h of peptide, fungicide, or combination treatment was determined.

[2] = test system: B. cinerea; test: In vitro antifungal activity against B. cinerea; format: cell-based, Botrytis cinerea
[3] = test system: protein translation in C. sojina Cs350 germlings; test: In vivo protein translation inhibition assay (puromycin labeling); format: cell-based, Cercospora sojina; conditions: germlings treated 2 h at 6 µM and 12 µM, puromycin 1 mM 3 h; n=3
Experimental: To assess the translation inhibition of NCR13_PFV1 in C. sojina Cs350, we adapted a recently established puromycin labeling protocol in B. cinerea with minor modifications ([Godwin and Shah, 2025]). Cercospora sojina spores at a concentration of ∼10^5 ml^–1 were inoculated in SFM and cultured for 18 h. The germlings were then treated with NCR13_PFV1 (6 µM and 12 µM) or cycloheximide (50 µg ml^–1) (positive control) for 2 h, followed by the addition of puromycin (1 mM) and incubation for 3 h at 28 °C. After incubation, the germlings were washed three times with sterile water. Total proteins were extracted from germlings using lysis buffer (100 mM HEPES, 5 mM EDTA, 0.1% Triton-X 100, and yeast/fungal protease inhibitor cocktail) and the concentration was estimated using the Pierce BCA Protein Assay Kit (Thermo Scientific). Equal amounts (10 µg) of fungal protein were separated on a 4–20% mini-PROTEAN TGX stain-free protein gel (Bio-Rad, Cat No: 4568094). Western blot analysis was performed using an anti-puromycin antibody (Cell Signaling Technology, Cat No: 40939S), and signal intensities were quantified using Fiji ([Schindelin et al., 2012]).

[4] = test system: C. sojina Cs350 (fungicide resistant); test: Peptide-fungicide checkerboard assay; format: cell-based, Cercospora sojina; conditions: pair azoxystrobin / NCR13_PFV1; Cs350; 4 d; SHAM 60 µg ml–1; microscopy
Experimental: Synergy between NCR13_PFV1 and the widely used QoI foliar fungicides, azoxystrobin (Sigma-Aldrich, Cat No: 31697), trifloxystrobin (Sigma-Aldrich, Cat No: 46447), and pyraclostrobin (Sigma-Aldrich, Cat No: 33696), were evaluated using checkerboard assays. This assay was performed in a 96-well plate and the preparation of conidial suspension, peptide dilutions, and fungicide dilutions were similar to the in vitro antifungal activity assay described above. The presence of an alternative respiration pathway allows some fungi including C. sojina to germinate even in the presence of a high dose of QoI fungicides in vitro ([Ziogas et al., 1997]; [Zhang et al., 2012]). Therefore, to prevent alternative respiration in C. sojina, salicylhydroxamic acid (SHAM) was added in each reaction at the final concentration of 60 µg ml^–1 ([Zhang et al., 2012]). The conidia, peptide, fungicide, and SHAM were added in a 96-well plate at the v/v ratio of 4:1:1:2 (50 µl:12.5 µl:12.5 µl:25 µl) in the final reaction volume of 100 µl, and the plate was incubated at room temperature for 96 h (4 d). After 96 h, MIC values of the peptide–fungicide combination, peptide alone, and fungicide alone were calculated based on microscopy as well as the resazurin cell viability assay. The fractional inhibitory concentration (FIC) index was calculated using the formula FIC = (MICA+B/MICA) + (MICB+A/MICB), where MICA and MICB are the MIC for peptide (A) alone and fungicide (B) alone, respectively, MICA+B is the MIC for peptide in combination with fungicide (A+B), and MICB+A is the MIC for fungicide in combination with peptide (B+A). The FIC index was interpreted as: synergistic, ≤0.5; additive, >0.5–1.0; indifferent, >1 to <4.0; or antagonistic, ≥4.0.

[5] = Heme-peptide binding assay (colour change); conditions: equimolar heme and peptide, 100 µM, 1 h, room temperature
Experimental: Heme solutions were freshly prepared by dissolving hemin chloride (Sigma Cat No: 3741) in 0.1 M NaOH and used within an hour after preparation. Two heme-sequestering peptides, NCR247 and NCR455 ([Montiel et al., 2017]; [Sankari et al., 2022]), were used as positive controls, and water-only treatment as a negative control. The equimolar concentration of heme and peptide (100 µM) or water were mixed and incubated at room temperature for 1 h. When dissolved in NaOH, heme is light to dark brown in color; however, when it binds to a peptide, the color changes to reddish-brown as described by [Sankari et al. (2022)]. The change in color of heme to reddish-brown indicated the heme binding ability of the peptide.

[6] = test system: C. sojina rRNA; test: Electrophoretic mobility shift assay (EMSA); format: binding, Cercospora sojina; conditions: ~200 ng C. sojina RNA, 10 mM Tris–HCl pH 8.0, 1 mM EDTA, 1 h, room temperature
Experimental: To determine the RNA binding ability of NCR13_PFV1, EMSA was performed as described in [Godwin et al. (2024)]. Briefly, total RNA was extracted from C. sojina Cs350 grown in SFM using the ZymoBIOMICS DNA/RNA Miniprep Kit (Zymo Research). Approximately 200 ng of the fungal RNA was mixed with different concentrations of NCR13_PFV1 in 20 μl of binding buffer (10 mM Tris–HCl, pH 8.0, 1 mM EDTA), incubated at room temperature for 1 h, and run through gel electrophoresis.

[7] = test system: B. cinerea; conditions: ref Godwin et al., 2024; cited from earlier work
Text: The cysteine-rich defensins are the best characterized class of plant AFPs for their antifungal activity and multi-faceted MoAs. Many fungal pathogens internalize defensins and defensin-derived peptides in vitro, making them promising candidates for development as bio-fungicides to protect crops. For example, a well-characterized plant defensin MtDef4 and the 17 amino acid γ-core peptide GMA4CG_V6 peptide derived from this defensin are internalized by the necrotrophic pathogen Botrytis cinerea in vitro and robustly reduce gray mold symptoms when sprayed on tomato plants ([Tetorya et al., 2023] ...

TKPCQSDKDCKKFACRKPKVPKCINGFCKCVR (disulfide (positions not given here)) [NCR13_PFV1, chickpea nodule-specific cysteine-rich 32 amino acid peptide, disulfide cross-linking variant 1, expressed in Pichia pastoris]
cell death [1]: 57% | fold increase in MIC against B. cinerea with increasing iron ([2]; iron from 5 µM to 30 μM): 4 fold | MIC against B. cinerea at low iron ([2]; medium with 5 µM iron): 0.375 µM | MIC against B. cinerea at high iron ([2]; medium with 30 μM iron): 1.5 µM | concentration from which protein translation inhibition was observed [3]: 6 µM | Combination MIC [4]: 0.75 µM | heme binding (colour change of heme from brown to reddish-brown) [5]: no such color change | concentration from which binding to rRNA was observed [6]: 6 µM | fold more potent antifungal activity than NCR13_PFV2 against B. cinerea [7]: 2 fold
